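Each compound was tested at five concentrations against cells in 96-well plates for 48 hours. GI50 = concentration required for 50% inhibition of growth. TGI marks complete inhibition of growth.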
Legend:
Assay in all cases: growth of human tumour cells (NCI), 48 h
[1] = test system: OVCAR-8 ovarian
[2] = test system: MDA-MB-231 breast
[3] = test system: HOP-92 NSCLC
[4] = test system: MALME-3M melanoma
[5] = test system: SK-MEL-28 melanoma
[6] = test system: U251 CNS
[7] = test system: MDA-MB-468 breast
[8] = test system: SNB-75 CNS
[9] = test system: KM12 colon
[10] = test system: HT29 colon
[11] = test system: RXF 393 renal
[12] = test system: SNB-19 CNS
[13] = test system: HS 578T breast
[14] = test system: NCI-H226 lung
[15] = test system: OVCAR-4 ovarian
[16] = test system: SF-539 CNS
[17] = test system: MOLT-4 leukemia
[18] = test system: NCI-H460 lung
[19] = test system: SK-MEL-5 melanoma
[20] = test system: NCI/ADR-RES ovarian
[21] = test system: PC-3 prostate
[22] = test system: OVCAR-3 ovarian
[23] = test system: OVCAR-5 ovarian
[24] = test system: NCI-H522 lung
[25] = test system: CCRF-CEM leukemia
[26] = test system: SF-268 CNS
[27] = test system: HCT-15 colon
[28] = test system: HCT-116 colon
[29] = test system: TK-10 renal
[30] = test system: A498 renal
[31] = test system: UACC-257 melanoma
[32] = test system: 786-0 renal
[33] = test system: M14 melanoma
[34] = test system: T-47D breast
[35] = test system: SN12C renal
[36] = test system: SF-295 CNS
[37] = test system: MDA-MB-435
[38] = test system: K-562 leukemia
[39] = test system: A549 NSCLC
[40] = test system: ACHN renal
[41] = test system: SK-MEL-2 melanoma
[42] = test system: HL-60(TB) leukemia
[43] = test system: UACC-62 melanoma
[44] = test system: DU-145 prostate
[45] = test system: UO-31 renal
[46] = test system: CAKI-1 renal
[47] = test system: IGROV1 ovarian
[48] = test system: HCC-2998 colon
[49] = test system: SK-OV-3 ovarian
[50] = test system: HOP-62 NSCLC
[51] = test system: BT-549 breast
[52] = test system: MCF7 breast
[53] = test system: NCI-H23 lung
[54] = test system: EKVX NSCLC
[55] = test system: RPMI-8226 leukemia
[56] = test system: COLO 205 colon
[57] = test system: SW-620 colon
[58] = test system: LOX IMVI melanoma

## CN(C)CCCNC(=O)c1cc(NC(=O)c2cc(NC(=O)c3ccc(C#Cc4ccccc4)cc3)cn2C)cn1C
[1]
  GI50: 2.57 µM
  TGI: 6.63 µM
[2]
  GI50: 2.84 µM
  TGI: 5.03 µM
[3]
  GI50: 0.611 µM
  TGI: 3.47 µM
[4]
  GI50: 2.11 µM
  TGI: 4.22 µM
[5]
  GI50: 2.4 µM
  TGI: 4.47 µM
[6]
  GI50: 2.45 µM
  TGI: 5.93 µM
[7]
  GI50: 2.34 µM
  TGI: 4.43 µM
[8]
  GI50: 2.48 µM
  TGI: > 15.3 µM
[9]
  GI50: 2.93 µM
  TGI: 6.81 µM
[10]
  GI50: 2.56 µM
  TGI: 6.64 µM
[11]
  GI50: 1.61 µM
  TGI: 3.84 µM
[12]
  GI50: 2.84 µM
  TGI: 5.01 µM
[13]
  GI50: 3.7 µM
  TGI: 10 µM
[14]
  GI50: 2.28 µM
  TGI: 4.79 µM
[15]
  GI50: 4.21 µM
  TGI: > 15.3 µM
[16]
  GI50: 2.48 µM
  TGI: 4.7 µM
[17]
  GI50: 2.4 µM
  TGI: 7.24 µM
[18]
  GI50: 2.76 µM
  TGI: 6.04 µM
[19]
  GI50: 2.34 µM
  TGI: 4.37 µM
[20]
  GI50: 2.85 µM
  TGI: 7.02 µM
[21]
  GI50: 2.4 µM
  TGI: 5.38 µM
[22]
  GI50: 1.83 µM
  TGI: 4.13 µM
[23]
  GI50: 3.17 µM
  TGI: 7.43 µM
[24]
  GI50: 2.56 µM
  TGI: 5.16 µM
[25]
  GI50: 1.66 µM
  TGI: 6.46 µM
[26]
  GI50: 2.56 µM
  TGI: 5.65 µM
[27]
  GI50: 2.23 µM
  TGI: 4.48 µM
[28]
  GI50: 2.1 µM
  TGI: 4.46 µM
[29]
  GI50: 3.33 µM
  TGI: 9.03 µM
[30]
  GI50: 3 µM
  TGI: 8.96 µM
[31]
  GI50: 2.12 µM
  TGI: 4.77 µM
[32]
  GI50: 2.65 µM
  TGI: 4.9 µM
[33]
  GI50: 2.26 µM
  TGI: 4.54 µM
[34]
  GI50: 2.07 µM
  TGI: 4.94 µM
[35]
  GI50: 2.03 µM
  TGI: 4.09 µM
[36]
  GI50: 2.53 µM
  TGI: 4.97 µM
[37]
  GI50: 2.21 µM
  TGI: 4.39 µM
[38]
  GI50: 2.74 µM
  TGI: 7.99 µM
[39]
  GI50: 2.56 µM
  TGI: 5.38 µM
[40]
  GI50: 2.74 µM
  TGI: 6 µM
[41]
  GI50: 2.91 µM
  TGI: 5.98 µM
[42]
  GI50: 2.62 µM
  TGI: 7.14 µM
[43]
  GI50: 1.93 µM
  TGI: 4.07 µM
[44]
  GI50: 2.55 µM
  TGI: 5.18 µM
[45]
  GI50: 3.08 µM
  TGI: 12.2 µM
[46]
  GI50: 2.85 µM
  TGI: 7.97 µM
[47]
  GI50: 4.95 µM
  TGI: > 15.3 µM
[48]
  GI50: 2.34 µM
  TGI: 4.42 µM
[49]
  GI50: 5.58 µM
  TGI: > 15.3 µM
[50]
  GI50: 2.85 µM
  TGI: 5.42 µM
[51]
  GI50: 1.79 µM
  TGI: 3.94 µM
[52]
  GI50: 0.58 µM
  TGI: 2.38 µM
[53]
  GI50: 2.76 µM
  TGI: 5.37 µM
[54]
  GI50: 2.49 µM
  TGI: 5.18 µM
[55]
  GI50: 1.76 µM
  TGI: 5.89 µM
[56]
  GI50: 3.17 µM
  TGI: 5.82 µM
[57]
  GI50: 2.87 µM
  TGI: 6.02 µM
[58]
  GI50: 2.24 µM
  TGI: 4.31 µM

— PubChem BioAssay (NCI)
